Legend:
[1] = system: A2780 human ovarian cancer cells; test: Cell viability on coincubation with sodium formate (SRB); conditions: 0.5, 1 and 2 mM sodium formate
Description: Experiments included three sets of controls: the first, negative controls, consisted of untreated cells (only vehicle exposure), a second set was exposed to three concentrations of sodium formate (0.5, 1, and 2 mM), and a third set was exposed to cisplatin as positive controls. […] Following 72 h of recovery time in drug-free medium, cell survival was evaluated using the Sulforhodamine B colorimetric assay.
Cell viability assays of complexes 1–4 were carried out with A2780 ovarian cancer cells with sodium formate. […] Drug stock solutions (ca. 100 μM) were prepared as described for in vitro growth inhibition assays and then further diluted with media until working concentrations were achieved. Separately, a stock solution of sodium formate was prepared in saline. The complex and formate solutions were added to each well independently within 5 min of each other. All other experimental conditions were kept unchanged (drug exposure, cell recovery time, and end point assay used). The standard deviations were calculated.

[2] = system: A2780 human ovarian cancer cells; test: Antiproliferative activity (SRB assay), A2780; assay type: cell-based; conditions: 24 h drug exposure, 72 h recovery in drug-free medium
Description: (§1) A2780 and A2780Cis human ovarian, A549 human lung, HEPG 2 human hepatocellular, MCF 7 human breast cancer, and MRC 5 human normal fibroblast cell lines were grown in Roswell Park Memorial Institute medium (RPMI-1640) supplemented with 10% of fetal calf serum, 1% of 2 mM glutamine, and 1% penicillin/streptomycin. All cells were grown as adherent monolayers at 310 K with 5% CO2 humidified, and all cells were passaged at ca. 80% confluency.
(§2) The antiproliferative activity and cytotoxicity of complexes 1–4 were determined in five different cancer cell lines and one human normal cell line. In general, about 5000 cells per well were seeded in 96-well plates. The plates were preincubated with drug-free medium at 310 K for 48 h before adding the tested compounds (various concentrations). Stock solutions of complexes 1–4 were prepared in DMSO/cell culture medium, and exact complex concentrations were determined by ICP-OES. […] A further cell recovery for 72 h was allowed in drug-free medium at 310 K. The sulforhodamine B (SRB) assay was used to determine cell viability. IC50 values, as the concentration that causes 50% cell death, were determined as duplicates of triplicates in two independent sets of experiments, and their standard deviations were calculated.

[3] = system: A2780Cis cisplatin-resistant ovarian cancer cells; test: Antiproliferative activity (SRB assay), A2780Cis; assay type: cell-based, human; conditions: for IC50: 24 h drug exposure, 72 h recovery in drug-free medium; for RI (resistance index): ratio of IC50 A2780Cis to parental A2780
Description: as §1, §2

[4] = system: A549 human lung cancer cells; test: Antiproliferative activity (SRB assay), A549; assay type: cell-based; conditions: 24 h drug exposure, 72 h recovery in drug-free medium
Description: as §1, §2

[5] = system: HEPG2 human hepatocellular cancer cells; test: Antiproliferative activity (SRB assay), HEPG2; assay type: cell-based; conditions: 24 h drug exposure, 72 h recovery in drug-free medium
Description: as §1, §2

[6] = system: MCF7 human breast cancer cells; test: Antiproliferative activity (SRB assay), MCF7; assay type: cell-based; conditions: 24 h drug exposure, 72 h recovery in drug-free medium; read-out: IC50 MCF 7
Description: as §1, §2

[7] = system: MRC5 normal human lung fibroblast cells; test: Cytotoxicity (SRB assay), MRC5 normal fibroblasts; assay type: cell-based; conditions: 24 h drug exposure, 72 h recovery, read-out: IC50 MRC 5
Description: as §1, §2

[8] = NAD+ to NADH, formate hydride donor; Ru/NAD+/formate 1/4/25, DMSO-d6/D2O, pH* 7.2, 310 K
Description: (§3) Catalytic transfer hydrogenation reactions of complexes 1–4 and sodium formate as hydride donor for conversion of nicotinamide adenine dinucleotide (NAD^+) to NADH were studied in aqueous media by UV–visible spectroscopy by following the absorbance at 340 nm for NADH and by ^1H NMR spectroscopy (20% DMSO-d6 in D2O) by monitoring peaks corresponding to 1,4-NADH.
Complexes 1–4 were dissolved in DMSO-d6/D2O (3/2 v/v; 1.4 mM) in a glass vial. Aliquots (200 μL) of solutions of sodium formate (35 mM) and NAD^+ (5.6 mM) in D2O were added, and the pH* was adjusted to 7.2 ± 0.1, for a final volume of 0.64 mL (Ru complex 0.44 mM, NAD^+ 1.75 mM, NaHCO2 10.94 mM; molar ratio 1/4/25). The solution was transferred to a 5 mm NMR tube, and a ^1H NMR spectrum was recorded at 310 K every 162 s until the completion of the reaction. Molar ratios of NAD^+ and NADH were determined by integrating the peaks corresponding to resonances for NAD^+ (9.33 ppm) and 1,4-NADH (6.96 ppm). The turnover number (TON) for the reaction was calculated [drawing 1] where In is the integral of the signal at n ppm and [NAD^+] is the concentration of NAD^+ at the start of the reaction.

[9] = NAD+ to NADH, formate hydride donor; Ru/NAD+/formate 1/6/1200, pH 7.2, 310 K, 340 nm
Description: as §3
Complexes 1–4 were dissolved in DMSO/H2O (1/9 v/v) (84 μM) in a glass vial. Solutions of sodium formate (102 mM) and NAD^+ in H2O (510 μM) were also prepared and then mixed at 310 K. In a typical experiment, an aliquot of 330 μL from each solution was placed in a 1 mL cuvette and the pH adjusted to 7.2 before the sample was introduced into the UV–vis instrument, giving a total volume of 1 mL (final concentrations were Ru complex 28 μM, NAD^+ 170 μM, NaHCO2 34 mM, molar ratio 1/6/1200). UV spectra were recorded every 5 min until completion of the reaction. The spectrum was monitored for an increase in the band at 340 nm, which corresponds to the absorption of NADH.

[10] = system: A2780 human ovarian cancer cells; conditions: 24 h exposure at equipotent IC50 concentration, no recovery
Description: (§4) ICP-MS and ICP-OES analyses were carried out on Agilent Technologies 7500 series and PerkinElmer Optima 5300 DV series instruments, respectively. The double-deionized (DDW) water used for both analyses was from a Millipore Milli-Q water purification system and a USF Elga UHQ water deionizer. The Ruthenium Specpure plasma standard (ruthenium chloride, 1004 ± 5 μg/mL in 10% v/v hydrochloric acid) was diluted with 3.6% v/v HNO3, and calibrants were prepared freshly at concentrations of 0.1–500 ppb for ICP-MS and 50–700 ppb for ICP-OES. In particular, calibration standards for ICP-OES analysis were adjusted with standard sodium chloride (TraceSELECT) solution to match the sample salinity. The instrument was set to detect ^101Ru with typical detection using no-gas mode for ICP-MS analysis.
(§5) Cellular Ru accumulations for complexes 2 and 4 were determined on A2780 ovarian and A2780 cisplatin-resistant ovarian cancer cells. Approximately 2 × 10^6 cells were seeded in a six-well plate and preincubated in drug-free medium at 310 K for 24 h, and stock solutions of both complexes were prepared in a mixture of DMSO/cell culture medium and their accurate Ru concentrations were determined by ICP-OES. […] After this time, cells were treated with trypsin and counted and cell pellets were collected. […] Statistical significances of variations were determined using Welch’s t-tests.

[11] = system: A2780Cis cells; conditions: 24 h exposure at equipotent IC50 concentration, no recovery
Description: as §4, §5

[12] = system: double-helical calf thymus DNA (ct-DNA); test: Binding to calf thymus DNA (FAAS after dialysis); conditions: ri 0.1 and 0.5, 10 mM NaClO4, 310 K, 24 h
Description: The reaction was terminated after 24 h of incubation, and samples were exhaustively dialyzed against water. The ruthenium content in these samples was determined by flameless atomic absorption spectrometry (FAAS) and the concentration of DNA by absorption spectrophotometry.

[13] = system: single-stranded 50-mer oligonucleotide; test: Binding to single-stranded 50-mer oligonucleotide (FAAS); conditions: ri = 0.5, 0.05 M NaClO4, 310 K, 24 h, dark
Description: (§6) After 24 h the reaction was stopped, and samples were exhaustively dialyzed against water. The ruthenium contents in these samples were determined by FAAS, and the concentrations of DNA were determined by absorption spectroscopy.

[14] = system: double-stranded 50-mer oligonucleotide; test: Binding to double-stranded 50-mer oligonucleotide (FAAS); conditions: ri = 0.5, 0.05 M NaClO4, 310 K, 24 h, dark
Description: as §6

[15] = parameters: method as in PMID 16604356; conditions: cited from earlier work
[16] = system: A2780 human ovarian cancer cells; test: ROS/superoxide induction (flow cytometry); assay type: cell-based; conditions: IC50 concentration, 24 h; pyocyanin 30 min
Description: The total level of oxidative stress, including H2O2, peroxy and hydroxyl radical, peroxynitrite, NO, and superoxide production, was monitored using the green channel FL1 and orange channel FL2, respectively.
Positive controls were obtained by exposure of cells to pyocyanin for 30 min. Data were processed using Flowjo software. At all times, samples were kept under dark conditions to avoid light-induced ROS production.

Row | IC50 [2] [µM] | IC50 [3] [µM] | IC50 [4] [µM] | IC50 [5] [µM] | IC50 [6] [µM] | Compound | RI (resistance index) [3] | IC50 [7] [µM] | TOF (NMR) [8] [h^–1] | TOF (UV–vis) [9] [h^–1] | other results
1 | – | – | – | – | – | O=C[O-].[Na+] [sodium formate] | – | – | – | – | toxicity of formate alone [1]: not toxic
2 | 1.2 ± 0.02 | 13.4 ± 0.3 | 3.1 ± 0.1 | 5.7 ± 0.9 | 7.3 ± 0.2 | [NH2][Pt]([NH2])([Cl])[Cl] [CDDP, cisplatin, reference compound] | 11 | 12.8 ± 0.3 | – | – | selectivity index between MRC5 normal cells and A2780Cis cancer cells ([3]; MRC5 vs A2780Cis): 0.95
3 | 23 ± 1 | > 50 | 33 ± 1 | 27.8 ± 0.1 | 28.9 ± 0.9 | [Ru(η^6-Ph(CH2)3-ethylenediamine-N-Ms)Cl] [Complex 1] | >2 | 31 ± 1 | 3.79 ± 0.05 | 5.8 ± 0.2 | –
4 | > 50 | > 50 | 31 ± 2 | > 50 | 24 ± 3 | [Ru(η^6-Ph(CH2)3-ethylenediamine-N-Tf)Cl] [Complex 3] | – | 28 ± 3 | 8.9 ± 0.3 | 8.69 ± 0.07 | –
5 | – | – | – | – | – | Cc1ccc(C(C)C)cc1.Cc1ccc(S(=O)(=O)[N](CCN)[Ru][Cl])cc1 [JS2, [(η^6-p-cym)Ru(TsEn)Cl]] | – | – | – | – | ruthenium bound to ct-DNA [12]: No detectable amount of ruthenium; Ru bound to single-stranded oligonucleotide [13]: No Ru associated; Ru bound to double-stranded oligonucleotide [14]: No Ru associated; TOF for TH reduction of NAD+ [15]: 2.88 h^–1
6 | – | – | – | – | – | Cn1c2cccc(=O)c-2nc2ccccc21 [Pyocyanin, pyocyanin] | – | – | – | – | Cell Populations FL-1+/FL-2+ [16]: 96.1 ± 0.8%; Cell Populations FL-1+/FL-2- (total oxidative stress) [16]: 1.5 ± 0.6%; Cell Populations FL-1-/FL-2+ (superoxide) [16]: 2.5 ± 0.9%; Cell Populations FL-1-/FL-2- [16]: 0.45 ± 0.08%
7 | – | – | – | – | – | F[P-](F)(F)(F)(F)F.NCCN.[Cl][Ru+].c1ccc(-c2ccccc2)cc1 [RM175, [(η^6-biph)Ru(en)Cl]PF6] | – | – | – | – | TOF for TH reduction of NAD+ [15]: 0.18 h^–1

Row | Compound | IC50 [2] [µM] | IC50 [3] [µM] | IC50 [4] [µM] | IC50 [5] [µM] | IC50 [6] [µM] | RI (resistance index) [3] | IC50 [7] [µM] | TOF (NMR) [8] [h^–1] | TOF (UV–vis) [9] [h^–1] | other results
8 | [Ru(η^6-Ph(CH2)3-ethylenediamine-N-Nb)Cl] [Complex 4] | 16 ± 0.3 | > 50 | 30 ± 1 | 23 ± 4 | 9.9 ± 0.5 | >3 | 26 ± 1 | 8.5 ± 0.2 | 9.9 ± 0.2 | cellular Ru content [10]: 150 ± 38 ng per million cells; cellular Ru content [11]: 241 ± 10 ng per million cells
